# Source: patent US7256183B2, “Method for treating or preventing inflammatory diseases” (Inspire Pharmaceuticals, Inc., priority 2001, dated 2007)
# What was measured:
# [1] = system: compound 48/80 ocular surface type-1 hypersensitivity; assay: Ocular Type-1 hypersensitivity in albino rats (topical 48/80 model); assay type: in vivo; conditions: FIG. 1; for magnitude of reduction in vascular leakage and Evans blue extravasation, UP4U versus reference controls: rats, 48/80, 2% UP4U, 0.05% levocabastine, 0.025% ketotifen, 0.1% olopatadine eye drops
# Procedure: The rat model of ocular immediate (Type-1) hypersensitivity using topical compound 48/80 was used for testing anti-inflammatory drugs (Feinberg and Stokes, Int. Arch. Allergy Appl. Immunol. 82(3-4): 537-8. (1987)). The effects of levocabastine, ketotifen, and olopatadine, which are three approved drugs for the use of ocular surface inflammation, particularly allergic conjunctivitis, were assessed. UP4U was investigated for its effects on mitigating the clinical signs of compound 48/80 on ocular surface type-1 hypersensitivity. Ten albino rats per group were administered compound or vehicle four times daily for 3 days and twice on the fourth day (the last administration 2 h before challenge with 48/80). Comparison was made between the test substances, the test substances vehicle, the reference substance (0.05% levocabastine eye drops—Lévophta®; 0.025% ketotifen eyedrops—Zaditor®; and 0.1% olopatadine eyedrops—Patanol™), and negative control animals (untreated and unchallenged). Eye drops were instilled into the right conjunctival sac of each animal with test substances. […] The formulated compounds or vehicle were allowed to gradually run from the top to the bottom of the ocular surface. Efficacy was evaluated by measuring edema: clinical scores and extravasation of Evans blue dye (blood-eyelids and blood-eyeballs permeability indexes). The model has been previously validated (Khosravi, et al., Inflamm. Res. 44(1): 47-54 (1995)).
# [2] = system: ocular active anaphylaxis with egg albumin as an antigen; assay: Ocular active anaphylaxis, guinea pig egg albumin model; assay type: in vivo, albino guinea pigs; conditions: FIG. 2; for magnitude of reduction on eyeballs, UP4U versus reference controls: guinea pigs, egg albumin, 2% UP4U, 0.05% levocabastine, 0.025% ketotifen, 0.1% olopatadine eye drops
# From the text: The guinea pig model of ocular active anaphylaxis with egg albumin as an antigen, serves as a testing system for anti-inflammatory and anti-allergic drugs (Yamaji, et al., Methods Find. Exp. Clin. Pharmacol. 19(9): 637-43 (1997)). The ocular effects of compounds and vehicle control were investigated using an experimentally-induced ocular active anaphylaxis in the guinea pig. Ten albino guinea pigs per group were sensitized with an intraperitoneal injection of egg albumin, followed 14 days later with a challenge by a single ocular instillation of egg albumin. Four times daily for 3 days and twice on the fourth day (the last one 2 h before challenge), test substances were instilled into the right conjunctival sac of the animals. The immune response was induced by immunization with egg albumin, and the ocular reaction was induced by ocular instillation of egg albumin, thereby causing the release of allergy mediators and ocular edema. Efficacy was evaluated by measuring edema: clinical scores and extravasation of Evans blue dye (blood-eyelids and blood-eyeballs permeability indexes). Comparison was made between the test substances, the test substances vehicle, the reference substance (0.05% levocabastine eye drops—Lévophta®; 0.025% ketotifen eyedrops—Zaditor®; and 0.1% olopatadine eyedrops—Patanol™), and negative control animals (untreated and unchallenged). The model was previously validated (Khosravi, et al., Inflamm. Res. 44(1): 47-54 (1995)).
# [3] = system: mucociliary clearance of nasal tissue; assay: Nasal spray saccharin transport time (STT) test; assay type: in vivo, humans; conditions: for mean STT: pooled PAR and NR and across doses 5-80 mg/mL, single dose nasal spray, with outliers, (±SD); for STT mean (± SD): across all cohorts, NR and PAR groups pooled, without outliers (<1 minute or >30 minutes excluded)
# Procedure: The speed with which the saccharin was transported this distance is a measure of mucociliary clearance.
# Sixty subjects, 30 healthy non-rhinitic (NR) volunteers and 30 subjects with perennial allergic rhinitis (PAR), participated in a randomized, double-blind, single-center, 2-period crossover study evaluating escalating, single doses of a UP4dC nasal spray delivered as a non-preserved aqueous nasal spray. Each subject received a single dose (2 sprays in each nostril, 140 μL/spray) of UP4dC and placebo (0.9% w/v saline spray) on two treatment days in random order (crossover design). Five cohorts of 12 subjects received five concentration levels of UP4dC (5, 10, 20, 40, and 80 mg/mL) in ascending order. The STT was performed 5-minutes and 300-minutes post-dose on each treatment day on each subject (a saccharin particle was placed in the nose at 5 and 300 minutes post-dose and then time to taste was recorded).
# Analyses were carried out excluding those STT values that were either too fast (<1 minute) or too slow (>30 minutes). Both of these scenarios are deemed as errors and are a likely result of the saccharin particle being inappropriately administered.
# [4] = system: symptoms of perennial allergic rhinitis (PAR); assay: Perennial allergic rhinitis symptom study with nasal spray; assay type: in vivo, humans
# From the text: This example illustrates the efficacy of a U[…] nasal spray in reducing the symptoms of perennial allergic rhinitis (PAR) in humans. Patients with PAR suffer year-round from symptoms of allergic rhinitis because they are sensitized to allergens that are present in homes and the environment throughout the year, including dust mites, molds, and animal […] (dogs, cats, cockroaches, etc). Patients with PAR experience a constellation of nasal symptoms including nasal stuffiness/congestion, runny nose, post-nasal drip, sneezing and nasal itching. These symptoms were evaluated in pivotal efficacy trials as the total nasal symptom score (TNSS) as well as by evaluating each individual symptom, including the non-nasal symptoms of facial pain/pressure and cough. Patients rated each individual symptom on a scale from 0 (none) to 3 (severe) twice daily, reflecting their symptoms upon awakening (AM) and throughout the day (PM). Fifty-nine subjects with a documented history of PAR participated in a randomized, double-blind, 3-center, parallel-group study. […] Study medication was delivered twice daily as a non-preserved aqueous nasal spray as 2 sprays (100 μL in each spray) in each nostril. […] This was most notable for the 10 mg/ml U[…] group. Comparisons of pooled active versus placebo TNSS scores approached statistical significance for AM scores (p=0.139). Table 3 indicates the symptom and dose combinations that provided statistically significant reductions (p≦0.05) compared with placebo on any day during the 6-day treatment period. Conversely, significant symptom reductions in favor of placebo were observed on one day (PM sneezing, Day 2).
# [5] = 5 mg/mL, 6-day treatment period
# [6] = 10 mg/mL, 6-day treatment period
# [7] = 40 mg/mL, 6-day treatment period
compound,measurement,setting,value
"O=c1ccn([C@@H]2O[C@H](COP(=O)(O)OP(=O)(O)OP(=O)(O)OP(=O)(O)OC[C@H]3O[C@@H](n4ccc(=O)[nH]c4=O)[C@H](O)[C@@H]3O)[C@@H](O)[C@H]2O)c(=O)[nH]1 [UP4U, P^1,P^4-di(uridine 5′-)tetraphosphate]",vascular leakage and Evans blue extravasation on eyelids and eyeballs,"[1]; rats treated with 48/80 on the ocular surface, 2% UP4U eye drops four times daily for 3 days and twice on the fourth day",reduced
same,"magnitude of reduction in vascular leakage and Evans blue extravasation, UP4U versus reference controls",[1],comparable
same,vascular leakage and Evans blue extravasation on eyeballs,"[2]; guinea pigs challenged with egg albumin, 2% UP4U eye drops four times daily for 3 days and twice on the fourth day",reduced
same,"magnitude of reduction on eyeballs, UP4U versus reference controls",[2],comparable
"Nc1ccn([C@H]2C[C@H](O)[C@@H](COP(=O)(O)OP(=O)(O)OP(=O)(O)OP(=O)(O)OC[C@H]3O[C@@H](n4ccc(=O)[nH]c4=O)[C@H](O)[C@@H]3O)O2)c(=O)n1 [UP4dC, P^1-(2′-deoxycytidine 5′)-P^4-(uridine 5′-)tetraphosphate]",mean STT,[3]; 5-hour (300-minute) post-dose assessment,9.58 (±10.30) minutes
same,mean STT,[3]; 5-minute post-dose assessment,7.04 (±6.06) minutes
same,STT mean (± SD),[3]; 5 minute,6.89 (5.36) minutes
same,STT mean (± SD),[3]; 300 minute,8.41 (5.79) minutes
same,time elapsed before the saccharin was tasted compared to placebo,"[3]; UP4dC nasal spray, single dose, humans",shorten
same,days with statistically significant reductions (p≦0.05) compared with placebo: Nasal blockage/stuffiness,[4]; [5],AM-Day 4
same,days with statistically significant reductions (p≦0.05) compared with placebo: Post-nasal drip,[4]; [5],AM-Days 4 and 6
same,days with statistically significant reductions (p≦0.05) compared with placebo: Nasal blockage/stuffiness,[4]; [6],AM-Day 5
same,days with statistically significant reductions (p≦0.05) compared with placebo: Post-nasal drip,[4]; [6],AM-Days 5 and 6
same,days with statistically significant reductions (p≦0.05) compared with placebo: Rhinorrhea,[4]; [6],PM-Day 5
same,days with statistically significant reductions (p≦0.05) compared with placebo: Total Symptom Score,[4]; [6],AM-Days 5 and 6
same,days with statistically significant reductions (p≦0.05) compared with placebo: Itching,[4]; [7],AM-Day 3
same,days with statistically significant reductions (p≦0.05) compared with placebo: TNSS,[4]; [7],AM-Day 3
same,days with statistically significant reductions (p≦0.05) compared with placebo: Total Symptom Score,[4]; [7],PM-Day 5
same,change from the placebo run-in period in TNSS averaged over the entire 6-day treatment period,"[4]; AM (0–15 scale), 5 mg/mL nasal spray twice daily",−0.96 (2.08)
same,change from the placebo run-in period in TNSS averaged over the entire 6-day treatment period,"[4]; AM (0–15 scale), 10 mg/mL nasal spray twice daily",−1.20 (2.00)
same,change from the placebo run-in period in TNSS averaged over the entire 6-day treatment period,"[4]; AM (0–15 scale), 40 mg/mL nasal spray twice daily",−1.14 (2.02)
same,change from the placebo run-in period in TNSS averaged over the entire 6-day treatment period,"[4]; AM + PM (0–30 scale), 5 mg/mL nasal spray twice daily",−2.02 (4.31)
same,change from the placebo run-in period in TNSS averaged over the entire 6-day treatment period,"[4]; AM + PM (0–30 scale), 10 mg/mL nasal spray twice daily",−2.59 (4.50)
same,change from the placebo run-in period in TNSS averaged over the entire 6-day treatment period,"[4]; AM + PM (0–30 scale), 40 mg/mL nasal spray twice daily",−2.09 (3.99)
same,change from the placebo run-in period in TNSS averaged over the entire 6-day treatment period,"[4]; PM (0–15 scale), 5 mg/mL nasal spray twice daily",−0.94 (2.07)
same,change from the placebo run-in period in TNSS averaged over the entire 6-day treatment period,"[4]; PM (0–15 scale), 10 mg/mL nasal spray twice daily",−1.26 (2.46)
same,change from the placebo run-in period in TNSS averaged over the entire 6-day treatment period,"[4]; PM (0–15 scale), 40 mg/mL nasal spray twice daily",−1.01 (2.55)
same,"reductions in TNSS compared with placebo for AM, PM, and AM+PM analyses","[4]; active treatment groups 5, 10, 40 mg/mL, not statistically significant versus placebo",consistently greater reductions
"CN1CCC(=C2c3ccccc3CC(=O)c3sccc32)CC1 [ketotifen, reference compound]","magnitude of reduction in vascular leakage and Evans blue extravasation, UP4U versus reference controls",[1],comparable
same,"magnitude of reduction on eyeballs, UP4U versus reference controls",[2],comparable
"C[C@@H]1CN([C@H]2CC[C@](C#N)(c3ccc(F)cc3)CC2)CC[C@]1(C(=O)O)c1ccccc1 [levocabastine, reference compound]","magnitude of reduction in vascular leakage and Evans blue extravasation, UP4U versus reference controls",[1],comparable
same,"magnitude of reduction on eyeballs, UP4U versus reference controls",[2],comparable
"CN(C)CC/C=C1/c2ccccc2COc2ccc(CC(=O)O)cc21 [olopatadine, reference compound]","magnitude of reduction in vascular leakage and Evans blue extravasation, UP4U versus reference controls",[1],comparable
same,"magnitude of reduction on eyeballs, UP4U versus reference controls",[2],comparable
